Patent US20110269837A1, “PHOSPHORUS BINDER COMPOSITION FOR TREATMENT OF HYPERPHOSPHATEMIA” (BIOLINK LIFE SCIENCES, INC., priority 2010, published 2011)
Where a name gives a salt, the structure may show the parent alone. Read-outs that look alike come from different tables or passages of the source.

Tests used:
[1] = for Pi binding (FIG. 1): 24 hours; for Observed in vitro Pi Binding, %: inventor's experiments, mean of triplicate determinations
Protocol: The pH of each solution was adjusted to the desired value by the addition of concentrated hydrochloric acid or sodium hydroxide, as appropriate.
An HPLC method with conductivity detection was developed and validated for use in the determination of succinate, acetate and phosphate. The separation was performed on a Dionex AS11 […] HPLC column integrated with an Agilent Series 1100 HPLC system, and detection of the anionic species was enabled using a Dionex ED50 Electrochemical Detector, operating in Conductivity Mode. Limits of Detection and Quantitation were enhanced through the use of a Dionex Anion Self-Regenerating Suppressor. After assay-specific development and verification of assay performance were completed, the analysis of phosphate and succinate or acetate was performed by sampling the test solution and diluting it, if necessary, to a concentration within the linear range of the Assay. The sample was then injected onto the HPLC column and eluted with a sodium hydroxide gradient. Data were acquired using Agilent ChemStation® software.
Experimental Methods: Experiments were completed in triplicate in which 2.77 g of Na2HPO4.7 H2O (equivalent to 320 mg of elemental phosphorus) was dissolved in 570 mL of deionized water. The test or control binder was dissolved in deionized water to a volume of 30 mL. The binder solution was added to the phosphorus solution to give a final volume of 600 mL. For each binder study, the phosphorus solutions were titrated by addition of dilute HCl or dilute NaOH to five different initial pH levels: 4, 5, 6, 7, and 8. (These solution pH's span the pH range of the gastrointestinal tract.) Then the beakers containing the solutions were covered with plastic wrap and placed on a stir plate that agitated the solution at ˜20 cycles per minute overnight. This stirring rate has been selected because in vitro antacid activity at such low stirring rates has been reported to correlate well with in vivo antacid activity in the stomach. Samples for ion chromatographic assay of solution phosphate (Pi) were taken at 24 hours post-mixing (the maximum time available for phosphorus binding that has been reported in related in vivo studies). The decrease in phosphorus concentration from the original concentration in the phosphorus solution to that of the filtrate represents the bound phosphorus.

[2] = Sheikh et al. 1989, cited from earlier work
[3] = healthy human subjects, anticipated
Description: Net calcium absorption will be measured by a validated method, such as the one described in detail by Bo-Linn, G. W. et al., Journal of Clinical Investigation, 73: 640-647 (1984). The procedure that will be followed is described below.
On each day, subjects will be prepared by a mannitol-electrolyte gastrointestinal lavage, in order to cleanse the gastrointestinal tract. […] Then each subject will eat a test meal of 80 g ground sirloin steak, 100 g French fried potatoes, 30 g Swiss cheese and 250 mL water containing 10 g of polyethylene glycol (PEG3500) as a non-absorbable marker. After the meal, each subject will consume 25 mEq of calcium, in the same form as will have been consumed prior to the meal, or additional placebo, with 100 mL of water. Duplicate meals will be prepared (one for consumption and one to be analyzed for calcium and phosphorus). The duplicate meals will be analyzed for calcium and phosphorus and are expected to contain about 350 mg of phosphorus and about 215 mg of calcium. […]
Ten hours after a meal, a second lavage will be begun, using the procedure described above. […] All urine voided during the 10-hour period will be collected and analyzed for phosphorus and calcium. Rectal effluent will be collected, pooled with any stool passed during the 10-hour period and analyzed for phosphorus and calcium. Absorption will be calculated according to the following equation: […]

## CC(=O)[O-].CC(=O)[O-].[Ca+2] [Calcium Acetate, calcium acetate]
[1]; pH 4
  Pi binding (FIG. 1): 100%
[1]; pH 4.0
  Observed in vitro Pi Binding, %: 58.6%
[1]; pH 5
  Pi binding (FIG. 1): 92%
[1]; pH 6
  Pi binding (FIG. 1): 100%
[1]; pH 6.0
  Observed in vitro Pi Binding, %: 93.8%
[1]; pH 7
  Pi binding (FIG. 1): 100%
[1]; pH 8
  Pi binding (FIG. 1): 100%

## O=C([O-])[O-].[Ca+2] [Calcium Carbonate, calcium carbonate]
[2]; pH 6.0
  Observed in vitro Pi Binding, %: 90%

## O=C([O-])CC(O)(CC(=O)[O-])C(=O)[O-].O=C([O-])CC(O)(CC(=O)[O-])C(=O)[O-].[Ca+2].[Ca+2].[Ca+2] [Calcium Citrate, calcium citrate]
[2]; pH 6.0
  Observed in vitro Pi Binding, %: 10%
[2]; pH 6.5
  Observed in vitro Pi Binding, %: 20% at pH 6.5 (NOTE 2)

## CC(O)C(=O)[O-].CC(O)C(=O)[O-].[Ca+2] (centres unmarked) [Calcium Lactate, calcium lactate]
[2]; pH 6.0
  Observed in vitro Pi Binding, %: 90%

## O=C(O)CCC(=O)O [Calcium Succinate, butanedioic acid calcium salt]
[1]; each pH value in the range from pH 4 to 8
  Pi binding compared with calcium acetate (FIG. 1): matches or exceeds
[1]; pH 4.0
  Observed in vitro Pi Binding, %: 59.4%
[1]; pH 6.0
  Observed in vitro Pi Binding, %: 94.0%
[3]; ingested close in time to test meal
  dietary phosphorus absorbed from the GI tract: about 20%
[3]; versus placebo day
  change in the percentage of dietary calcium absorbed from the GI tract: less than 10%

## calcium gluconate
[2]; pH 6.0
  Observed in vitro Pi Binding, %: 90%
